Data: patent US20210189341A1, “PLATELET DIAGNOSTIC IMAGING AGENTS” (Cellphire, Inc., priority 2019, published 2021)
Peptide text beside a SMILES is read from it.

Experiments:
[1] = test system: platelets; experiment: Flow cytometry of FITC-TAT loading into platelets in the presence of platelet anti-aggregation compounds; format: cell-based; details: 100 μM FITC-TAT, 60 minutes, loading buffer, 37° C.
Procedure: FIG. 3 is a flow cytometry histogram of samples incubated with 100 μM FITC-TAT in the presence of platelet anti-aggregation compounds PGE1, GR144053, and eptifibatide.
Re-suspend platelets in loading buffer (Table 1) or desired incubation solution at a concentration of 500,000 platelets/μL and incubate at 37° C. with low frequency agitation on a rocker for up to 3 hours.
Wash platelets with loading buffer (Table 1) 3× to remove unloaded agents (e.g., FITC-TAT, FITC-labeled magnetic nanoparticles) and use the remaining sample for plate reader, flow cytometer, and/or microscope analysis.
The results for the above formulation are provided herein. A Tecan Infinite M200 Pro plate reader was used for quantification of MRI agent loading. A Novocyte flow cytometer was used to determine both MRI agent loading and percent of platelets effectively loaded. An Olympus microscope was used to visualize the loading into platelets.
Negative controls included 0 μM FITC-TAT in loading buffer and 50 μM fluorescein in loading buffer. All samples were incubated in loading buffer at 37° C. with low frequency agitation on a rocker.

[2] = test system: platelets (400 K/μL); experiment: Magnetic resonance imaging of loaded platelet samples; details: positive control
Source text: FIGS. 9A-B show a schematic (FIG. 9A) and magnetic resonance imaging (FIG. 9B).
FIGS. 9A-B show a schematic (FIG. 9A) and magnetic resonance imaging (FIG. 9B). […] Sample 1A included loading buffer and platelets (400 K/μL), sample 1B included loading buffer alone, sample 2A included loading buffer, Gd-DOTA-CPP-FITC, and platelets (400 K/μL), and sample 2B included loading buffer and Gd-DOTA-FITC-CPP only (washed) as another negative control.

Compound | effect of anti-aggregation compound on platelet loading / distribution of FITC-CPP (flow cytometry histogram) [1] | detection by magnetic resonance imaging ([2]; 100 μM) | detection by magnetic resonance imaging ([2]; 100 mM)
Cl.Cl.Cl.N=C(N)c1ccc(N2CCN(C3CCN(CC(=O)O)CC3)CC2)cc1 [GR144053] | little to no effect | – | –
[Cl][Gd]([Cl])[Cl] [GdCl3] | – | detection | detection
CCCCC[C@H](O)/C=C/[C@H]1[C@H](O)CC(=O)[C@@H]1CCCCCCC(=O)O [PGE1, Prostaglandin E1] | improved platelet loading | – | –
N=C(N)NCCCC[C@@H]1NC(=O)CCSSC[C@@H](C(N)=O)NC(=O)[C@@H]2CCCN2C(=O)[C@H](Cc2c[nH]c3ccccc23)NC(=O)[C@H](CC(=O)O)NC(=O)CNC1=O [eptifibatide] (HELM PEPTIDE1{[O=C(CCS[*:3])[*:2]].[N=C(N)NCCCC[C@H](N[*:1])C(=O)[*:2]].G.D.W.P.C.[am]}$PEPTIDE1,PEPTIDE1,1:R3-7:R3$$$V2.0) | little to no effect | – | –
